Data as given in paper PMC10901556, “Conservation of Affinity Rather Than Sequence Underlies a Dynamic Evolution of the Motif-Mediated p53/MDM2 Interaction in Ray-Finned Fishes” (Molecular Biology and Evolution, 2024).
Where two headings read alike, the source gives them in different places. Each block holds one compound with its values, some of them ahead of it. Where no end group is shown, it is not given here.

How the values were obtained:
Assay in all cases: Fluorescence polarization displacement assay
Assay type in all cases: binding
[1] = target: T1, MDM2H.sapiens SWIB domain (Homo sapiens, UniProt Q00987)
T1 construct: NusA-TEV-His6-PreScission (N, cleaved yes); made in house; host or cells: Escherichia coli BL21 (DE3)
T1 sequence (Q00987 with tags, fused parts or gaps): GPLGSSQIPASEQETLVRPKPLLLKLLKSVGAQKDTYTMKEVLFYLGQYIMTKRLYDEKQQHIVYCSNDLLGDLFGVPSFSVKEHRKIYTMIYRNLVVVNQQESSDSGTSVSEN

[2] = target: MDM2 SWIB domain, Clupea harengus; conditions: for Kd: FP displacement of FITC-p53TADhuman^15–26 (15 nM) from MDM2 (1 μM), KD from IC50, 20 mM sodium phosphate pH 7.4, 150 mM NaCl, 1 mM TCEP
Chain of MDM2 SWIB domain, Clupea harengus (as listed by the source): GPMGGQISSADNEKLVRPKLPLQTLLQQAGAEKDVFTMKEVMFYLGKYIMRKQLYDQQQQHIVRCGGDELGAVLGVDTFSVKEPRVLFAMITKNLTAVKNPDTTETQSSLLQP

[3] = target: MDM2 SWIB domain, Anguilla anguilla; conditions: for Kd: FP displacement of FITC-p53TADhuman^15–26 (15 nM) from MDM2 (1 μM), KD from IC50, 20 mM sodium phosphate pH 7.4, 150 mM NaCl, 1 mM TCEP
Chain of MDM2 SWIB domain, Anguilla anguilla (as listed by the source): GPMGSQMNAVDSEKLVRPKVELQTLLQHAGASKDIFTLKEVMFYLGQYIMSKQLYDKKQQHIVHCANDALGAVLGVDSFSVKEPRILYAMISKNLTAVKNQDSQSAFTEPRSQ

[4] = target: MDM2 SWIB domain, Takifugu rubripes; conditions: for IC50 / Ki: T.rub MDM2 1500 nM
Chain of MDM2 SWIB domain, Takifugu rubripes (as listed by the source): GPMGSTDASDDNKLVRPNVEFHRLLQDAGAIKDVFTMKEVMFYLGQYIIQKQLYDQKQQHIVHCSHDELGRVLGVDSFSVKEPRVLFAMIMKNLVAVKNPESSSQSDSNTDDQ

[5] = target: MDM2 SWIB domain, Oncorhynchus kisutch; conditions: for Kd: FP displacement of FITC-p53TADhuman^15–26 (15 nM) from MDM2, KD from IC50, 20 mM sodium phosphate pH 7.4, 150 mM NaCl, 1 mM TCEP; for IC50 / Ki: O.kis MDM2 2000 nM
Chain of MDM2 SWIB domain, Oncorhynchus kisutch (as listed by the source): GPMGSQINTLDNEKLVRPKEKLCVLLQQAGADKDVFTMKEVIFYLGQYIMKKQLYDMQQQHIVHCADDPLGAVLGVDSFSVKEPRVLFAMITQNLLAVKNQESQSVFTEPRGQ

[6] = equals the mean of the replicates, read-out: IC50 [nM], mean
[7] = mean of the replicates (n = 3 or 6), read-out: Ki [nM] Average
[8] = mean of the replicates (n = 3 or 6), read-out: Ki [µM] Average
[9] = replicate 1, MDM2 1000 nM, labeled probe 15 nM, read-out: IC50 [M] (IT)
[10] = replicate 1, calculated from IC50 with Kd for probe […], read-out: Ki
[11] = replicate 2, MDM2 1000 nM, labeled probe 15 nM, read-out: IC50 [M] (IT)
[12] = replicate 2, calculated from IC50 with Kd for probe […], read-out: Ki
[13] = replicate 3, MDM2 1000 nM, labeled probe 15 nM, read-out: IC50 [M] (IT)
[14] = replicate 3, calculated from IC50 with Kd for probe […], read-out: Ki
[15] = labeled probe 15 nM, replicate 1, read-out: IC50 [M] (IT)
[16] = labeled probe 15 nM, replicate 3, read-out: IC50 [M] (IT)
[17] = mean of the replicates, probe 15 nM, read-out: IC50 [nM], mean of the replicates
[18] = labeled probe 15 nM, replicate 2, read-out: IC50 [M] (IT)
[19] = average of the replicates, probe 15 nM, Kd for probe […], read-out: Ki [nM] Average
[20] = average of the replicates, probe 15 nM, Kd for probe […], read-out: Ki [µM] Average
[21] = calculated from IC50, Kd for probe […], probe 15 nM, replicate 1, read-out: Ki
[22] = calculated from IC50, Kd for probe […], probe 15 nM, replicate 2, read-out: Ki
[23] = calculated from IC50, Kd for probe […], probe 15 nM, replicate 3, read-out: Ki

Compound: Ac-SQESFQELWNMVM [Tele p53 ML]
IC50 [1]: 456 nM
Kd [1]: 39 nM

Compound: Ac-SQGTFDEIWASNF [C.har p53 P1 short]
IC50 [1]: 9330 nM
Ki [1]: 1250 nM

Compound: Ac-SQDETFQALWNTVT [A.ang p53 P2 short]
IC50 [1]: 5780 nM
Ki [1]: 767 nM

Compound: Ac-SQESFQELWNMVI [L.ocu p53 short]
IC50 [1]: 1050 nM
Ki [1]: 120 nM

Compound: Ac-GQCSFQQLWESNM [O.kis p53 P1a short]
IC50 [1]: 23200 nM
Ki [1]: 3150 nM

Kd [2]: 190 ± 40 nM
IC50 [2, 6]: 1440 nM
Ki [2, 7]: 189 nM
Ki [2, 8]: 190 nM
IC50 [2, 9]: 1470 nM
Ki [2, 10]: 199 nM
IC50 [2, 11]: 1660 nM
Ki [2, 12]: 252 nM
IC50 [2, 13]: 1180 nM
Ki [2, 14]: 117 nM
Compound: GPMGMNQDEMTELPMSQGTFDEIWASNFVNNLDKTILDDLPPAFSNPSIHTLMDLGPSGVEGFVGLELPLDGSAPTPSSSPGMDCLPPTATT [C.har p53 P1 full, expressed full-length Atlantic herring p53TAD paralog 1]

Kd [3]: 60 ± 10 nM
IC50 [3, 6]: 1230 nM
Ki [3, 7]: 63.5 nM
Ki [3, 8]: 63.5 nM
IC50 [3, 9]: 1360 nM
Ki [3, 10]: 85.1 nM
IC50 [3, 11]: 1080 nM
Ki [3, 12]: 39.5 nM
IC50 [3, 13]: 1240 nM
Ki [3, 14]: 65.8 nM
Compound: GPMGMTEQEGTGALEYSLSQDETFQALWNTVTVPTEDEGWGSLDNQYLVGSPLQDGFDEKLFDVPATPAPPQPSGSALDSGAPPAST [A.ang p53 P2 full, expressed full-length European eel p53TAD paralog 2]

Compound: Ac-SQESFQELWKMIL [Tele p53 AA]
IC50 [1]: 105 nM
KD ([1]; FP displacement, printed in nM (Fig. S4 A native and B human MDM2)): lowest_Kd
Ki, remark beside the average ([1]; H.sap MDM2, labeled probe 15 nM, protein 200 nM, result in words): very high affinity

remark on affinity beside the average Ki ([1]; probe 15 nM, protein 200 nM, calculated Ki negative): very high affinity
Compound: CC(C)C[C@H](NC(=O)[C@@H](NC(=O)[C@H](CC(N)=O)NC(=O)[C@H](CC(N)=O)NC(=O)[C@H](CCC(=O)O)NC(=O)[C@H](C)NC(=O)[C@H](CC(C)C)NC(=O)[C@H](CC(C)C)NC(=O)[C@H](CCCCN)NC(=O)[C@H](Cc1c[nH]c2ccccc12)NC(=O)[C@H](CC(C)C)NC(=O)[C@H](CC(=O)O)NC(=O)[C@H](CO)NC(=O)[C@H](Cc1ccccc1)NC(=O)[C@@H](NC(=O)[C@@H](N)CCC(=O)O)[C@@H](C)O)C(C)C)C(=O)O [H.sap p53 P27A]

Kd [3]: 230 ± 20 nM
IC50 [3, 6]: 2210 nM
Ki [3, 7]: 229 nM
Ki [3, 8]: 229 nM
IC50 [3, 9]: 2080 nM
Ki [3, 10]: 208 nM
IC50 [3, 11]: 2490 nM
Ki [3, 12]: 277 nM
IC50 [3, 13]: 2060 nM
Ki [3, 14]: 203 nM
Compound: GPMGMTEQEAESLPLSQESFQELWKMMCPPATIHEPLSVNDGWHLESLLSETPLQESIDAGVFDLPTTLPPQPSVSAFNGDAALSST [A.ang p53 P1 full, expressed full-length European eel p53TAD paralog 1]

Compound: Ac-SQESFQELWNMVA [Acti p53 AA]
IC50 [1]: 459 nM
Kd [1]: 39 nM

Kd ([4]; FP displacement of FITC-p53TADhuman^15–26 (15 nM) from MDM2, KD from IC50, 20 mM sodium phosphate pH 7.4, 150 mM NaCl, 1 mM TCEP): 470 ± 30 nM
IC50 [4, 15]: 4.93e-06 M
IC50 ([4]; labeled probe 15 nM, replicate 2, read-out: IC50): 4.16e-06 M
IC50 [4, 16]: 4.19e-06 M
IC50 ([4]; labeled probe 15 nM, replicate 4, read-out: IC50 [M] (IT)): 3.43e-06 M
IC50 ([4]; labeled probe 15 nM, replicate 5, read-out: IC50 [M] (IT)): 4.05e-06 M
IC50 ([4]; labeled probe 15 nM, replicate 6, read-out: IC50 [M] (IT)): 4.53e-06 M
Ki ([4]; average of the replicates, probe 15 nM, Kd for probe 290 nM, read-out: Ki [nM] Average): 475 nM
Ki ([4]; average of the replicates, probe 15 nM, Kd for probe 290 nM, read-out: Ki [µM] Average): 475 nM
Ki ([4]; calculated from IC50, Kd for probe 290 nM, probe 15 nM, replicate 1, read-out: Ki): 592 nM
Ki ([4]; calculated from IC50, Kd for probe 290 nM, probe 15 nM, replicate 2, read-out: Ki): 467 nM
Ki ([4]; calculated from IC50, Kd for probe 290 nM, probe 15 nM, replicate 3, read-out: Ki): 471 nM
Ki ([4]; calculated from IC50, Kd for probe 290 nM, probe 15 nM, replicate 4, read-out: Ki): 347 nM
Ki ([4]; calculated from IC50, Kd for probe 290 nM, probe 15 nM, replicate 5, read-out: Ki): 449 nM
Ki ([4]; calculated from IC50, Kd for probe 290 nM, probe 15 nM, replicate 6, read-out: Ki): 527 nM
IC50 [4, 17]: 4.21e-06 M
Compound: GPMGMEDEGFSLPLSQDTFQDLWENVAAPSIVTIPTTSLENEQWHQELLMNYPELPFNEELFNLPSEMASKDSANLSTPT [T.rub p53 P1 full, expressed full-length Japanese puffer p53TAD paralog 1]

Compound: Ac-SQDSFKELWDQLP [M.zeb p53 P1 short]
IC50 [1]: 2150 nM
Ki [1]: 270 nM

Kd [2]: 40 ± 10 nM
IC50 [2, 6]: 904 nM
Ki [2, 7]: 37.1 nM
Ki [2, 8]: 37 nM
IC50 [2, 9]: 913 nM
Ki [2, 10]: 39.8 nM
IC50 [2, 11]: 983 nM
Ki [2, 12]: 59.7 nM
IC50 [2, 13]: 815 nM
Ki [2, 14]: 11.9 nM
Compound: GPMGMNDQGDSPDFEDLWNSIVPPVADVPWETSYLPESFDEQVFEQLQVSEPYIPTLGGGSPPCSA [C.har p53 P2 full, expressed full-length Atlantic herring p53TAD paralog 2]

Compound: Ac-SQDTFQDLWENVA [T.rub p53 P1 short]
IC50 [1]: 12700 nM
Ki [1]: 1710 nM

Compound: Ac-SQDSFRELWESVV [C.arg p53 P1 short]
IC50 [1]: 8080 nM
Ki [1]: 1080 nM

Compound: CC[C@H](C)[C@H](NC(=O)[C@H](CO)NC(=O)[C@H](CC(N)=O)NC(=O)[C@H](Cc1c[nH]c2ccccc12)NC(=O)[C@H](CC(C)C)NC(=O)[C@H](CC(=O)O)NC(=O)[C@H](CCC(=O)O)NC(=O)[C@H](Cc1ccccc1)NC(=O)[C@H](CC(=O)O)NC(=O)[C@@H]1CCCN1C(=O)[C@H](CO)NC(=O)[C@H](CC(=O)O)NC(C)=O)C(=O)N[C@H](C(=O)O)C(C)C [C.har p53 P2 short]
IC50 [1]: 2310 nM
Ki [1]: 293 nM

Compound: Ac-SQESFQELWKMMC [A.ang p53 P1 short]
IC50 [1]: 265 nM
Ki [1]: 12.9 nM

Kd [5]: 60 ± 10 nM
IC50 [5, 15]: 2.27e-06 M
IC50 [5, 18]: 2.26e-06 M
IC50 [5, 16]: 1.96e-06 M
Ki [5, 19]: 59.6 nM
Ki [5, 20]: 60 nM
Ki [5, 21]: 75.2 nM
Ki [5, 22]: 73.4 nM
Ki [5, 23]: 30.3 nM
IC50 [5, 17]: 2.16e-06 M
Compound: GPMGMEEQELSFPMSQGSFQQLWETNMSTQGSNIPPFGTGNWSDLDVSLAPVLPEATFHEDFDEGLFELPEPLAVEPLMSPLDSVPPPAST [O.kis p53 P1b full, expressed full-length coho salmon p53TAD paralog 1b]

Compound: Ac-SQESFEDLWKMNL [O.kis p53 P2 short]
IC50 [1]: 5930 nM
Ki [1]: 787 nM

Kd [5]: 48 ± 5 nM
IC50 [5, 15]: 2.11e-06 M
IC50 [5, 18]: 2.02e-06 M
IC50 [5, 16]: 2.12e-06 M
Ki [5, 19]: 48.4 nM
Ki [5, 20]: 48 nM
Ki [5, 21]: 52.4 nM
Ki [5, 22]: 38.8 nM
Ki [5, 23]: 54.1 nM
IC50 [5, 17]: 2.08e-06 M
Compound: GPMGMEELSPPLGQCSFQQLWESNMTPQGPSIPLVATENWSDLDVSLLPDATLHKVFDEVLFELLEPPVVEPSVSTLDSVPPPAST [O.kis p53 P1a full, expressed full-length coho salmon p53TAD paralog 1a]

Kd [5]: 70 ± 10 nM
IC50 [5, 15]: 2.13e-06 M
IC50 [5, 18]: 2.37e-06 M
IC50 [5, 16]: 2.18e-06 M
Ki [5, 19]: 68.6 nM
Ki [5, 20]: 69 nM
Ki [5, 21]: 55.4 nM
Ki [5, 22]: 88.9 nM
Ki [5, 23]: 61.7 nM
IC50 [5, 17]: 2.23e-06 M
Compound: GPMGMADLAENVSLPLSQESFEDLWKMNLNLMAVQPPVTESWVGYDNFMMEAPLQVEFDPSLFEVSATEPAPQPSISTLDTGSPPTST [O.kis p53 P2 full, expressed full-length coho salmon p53TAD paralog 2]

Compound: Ac-SQESFQDLWNMVT [Acti p53 ML]
IC50 [1]: 1510 nM
Ki [1]: 183 nM
